Assay results as given in a melting point compilation (Tetko et al.; mined from patent text by program, amines drawn as free bases though some values may be those of a salt).

First: COc1cc(C(C)C)c2c(c1)S(=O)(=O)N(COC(=O)c1c(C)noc1C)C2=O
Second: CC(C)c1cc(C(C)C)c(CC(=O)NS(=O)(=O)Oc2c(C(C)C)cc(NS(C)(=O)=O)cc2C(C)C)c(C(C)C)c1
The melting point of the first is lower: 137 to 139 °C for the first, 164 to 166 °C for the second.

First: CN(C)C=NCc1ccc2c(c1)Nc1nccnc1S2
Second: COc1cc(COc2nn(C)cc2CO)ccc1OCc1nc(-c2ccco2)oc1C
The melting point of the first is higher: 218 to 219 °C for the first, 132 to 133 °C for the second.

Compared with `O=C(O)c1cc(CN2C(=O)C3(COc4cc5c(cc43)OCO5)c3ccccc32)oc1C(F)(F)F` (stereo unspecified), `O=C1N(CCc2noc(C(F)(F)F)n2)c2ccccc2C12COc1cc3c(cc12)OCO3` (stereo unspecified) is lower in melting point: 195 to 197 °C for the first, 45 to 48 °C for the second.

First: CS(=O)(=O)Nc1ccc(C(=O)C2CCN(CCc3cn4ccccc4n3)CC2)cc1
Second: CS(=O)(=O)Nc1ccccc1OCCCN1CCC(OC(c2ccccc2)c2ccsc2)CC1 (stereo unspecified)
The melting point of the first is higher: 190 to 191 °C for the first, 79.5 to 82 °C for the second.

First: CCCCNc1ccn2nccc2n1
Second: CCCCOCCCn1c(CCCC)nc2cnc3cccnc3c21
The melting point of the first is higher: 75 to 76 °C for the first, 56.5 to 57.5 °C for the second.

First: CC(C)(C)OC(=O)[C@H](Cc1ccccc1)NC(=O)CNC1Cc2ccccc2C1
Second: CCOC(=O)Cc1ccc(NC(=O)Nc2ccccc2)cc1
The melting point of the first is lower: 117 to 120 °C for the first, 153 to 155 °C for the second.

Compared with `CC1(C)OC(C=Cc2ccc(C#N)cc2)=CC1=O`, `CCOC(=O)c1nnc2ccc(C#N)cc2c1O` is higher in melting point: 170 °C for the first, 259 to 261 °C for the second.

Compared with `Cc1nc(-c2cccnc2)sc1-c1ccnc(Nc2cccc(CN)c2)n1`, `COCOc1cc(F)ccc1-c1cc(-c2cccc(N)c2)c(C#N)c(NC(=O)c2ccco2)n1` is lower in melting point: 211 to 213 °C for the first, 204 to 206 °C for the second.

First: Cc1ccc2c(c1)C(CC(=O)NO)N(c1ccccc1)S2(=O)=O (stereo unspecified)
Second: CC1c2ccccc2COc2ccc(C(=O)O)cc21 (stereo unspecified)
The melting point of the first is lower: 150 to 155 °C for the first, 224 to 226 °C for the second.

First: CN(C)C=Cc1nc2ccccc2c(=O)n1-c1ccccc1Cl
Second: O=c1c2ccc(F)cc2nc(CSc2ncnc3[nH]cnc23)n1-c1ccccc1Cl
The melting point of the first is higher: 228 to 230 °C for the first, 151 to 154 °C for the second.

Going from `COC(=O)COc1ccc(Cn2c(-c3ccc(C(F)(F)F)cc3)c(C)c3cc(OCc4ccccc4)ccc32)cc1` to `COc1cc(C(=O)c2ccc(C(F)(F)F)cc2)ccc1OCc1ccccc1`, the melting point falls from 221 °C to 101 °C.

Compared with `CCS(=O)(=O)Nc1cc(-n2nc3n(c2=O)CCCS3)c(F)cc1C#N`, `O=C1C(=O)c2ccccc2C2=C1SCC1(CCN(S(=O)(=O)c3c(Cl)nc4sccn34)CC1)O2` is higher in melting point: 193 to 195 °C for the first, 265 to 267 °C for the second.

First: Cn1nc(-c2nc(C#CCO)c(Cl)cc2F)c(Cl)c1OC(F)F
Second: CC(=CCc1c(C)nc(N)nc1O)c1cc(Cl)ccc1Cl
The melting point of the first is lower: 92 to 94 °C for the first, greater than 250 °C for the second.

First: O=C(O)Cc1cccc(C(=O)c2ccc(OCc3ccc4ccccc4n3)cc2)c1
Second: O=C(O)CCCOc1ccc(OCc2ccccc2)cc1
The melting point of the first is higher: 146 to 147 °C for the first, 125 to 126 °C for the second.

First: CCCCCCC(C)(C)c1cc(OC)c(C2C(=O)[C@]3(C)CC[C@H]2C3(C)C)c(OC)c1 (stereo partly specified)
Second: CCCCCc1cc(OC)c(C2=C[C@H]3CC[C@]2(C(=O)O)C3(C)C)c(OC)c1
The melting point of the first is lower: 64 to 65 °C for the first, 84 to 86 °C for the second.

First: COC(=O)C(C)Oc1c(C#N)cnn1-c1ccc(C(F)(F)F)cc1Cl (stereo unspecified)
Second: COC(=O)CCC(=O)c1ccc(-c2ccc(C(F)(F)F)cc2)cc1
The melting point of the first is lower: 82 to 85 °C for the first, 140 to 142 °C for the second.

Compared with `CCOC(=O)C1CSC(c2cc3cccc(NS(=O)(=O)c4cccs4)c3[nH]2)=N1` (stereo unspecified), `Cn1c(=S)c(-c2cccs2)nc2ccccc21` is lower in melting point: 156 to 157 °C for the first, 113 °C for the second.

Compared with `COc1ncc(C(F)(F)F)cc1-c1cccn2nc(Nc3ccc(C4CCN(C(=O)OC(C)(C)C)CC4)cc3)nc12`, `COc1ccc(CC(=O)O)cc1OCCCc1cn(-c2ccc(C(F)(F)F)cn2)nc1C1CCCCC1` is lower in melting point: 142 to 144 °C for the first, 117 to 118 °C for the second.

Compared with `Nc1c(CC(=O)O)cccc1Nc1ccc(Cl)cc1`, `O=c1[nH]c2ccccc2c2nc(-c3ccc(Cl)cc3)nn12` is higher in melting point: 190 to 192 °C for the first, 315 to 318 °C for the second.

First: CC1=C(C(=O)c2ccc(C(F)(F)F)cc2)C(=O)C2C=CC=CC2C1=O (stereo unspecified)
Second: Cc1cc(Oc2ncnc3ccn(C)c23)ccc1NC(=O)Nc1cccc(C(F)(F)F)c1
The melting point of the first is lower: 155 to 156 °C for the first, 213 to 215 °C for the second.

First: CC(C)CNC(=O)c1ccc(C(=O)O)cc1[N+](=O)[O-]
Second: CC(C)C[C@@H](C#N)NC(=O)[C@@H]1CCCC[C@@H]1NC(=O)c1cc2ccccc2n1CC(C)(C)O
The melting point of the first is higher: 255 to 257 °C for the first, 102 to 106 °C for the second.

First: CC1(C)Cc2cccc(Oc3ccc(N)cc3Cl)c2O1
Second: Clc1ccccc1Oc1ccnc2c(Cl)cccc12
The melting point of the first is higher: 102 to 104 °C for the first, 56 to 58 °C for the second.

Compared with `CCn1c(C(C)NS(=O)(=O)c2ccc(Cl)c(Cl)c2)cnc1Oc1ccc(C)cc1` (stereo unspecified), `Cc1[nH]c(-c2ccccc2)nc1-c1ccc(Cl)c(Cl)c1` is higher in melting point: 142 to 144 °C for the first, 169 to 171 °C for the second.

First: CCc1nc2c(C)cc(C)nc2n1Cc1ccc2c(c1)c1ccccc1n2CCC#N
Second: CCc1nc(C)c(CCC(=O)N(CC)CC)c(=O)n1Cc1ccc(-c2ccccc2-c2nnn[nH]2)cc1
The melting point of the first is higher: 180 to 181 °C for the first, 100 to 105 °C for the second.

First: CCCCCCCCCCCCCCOc1ccc(OCc2ccccc2)c(C(=O)N(CC(=O)OCC)CC(=O)OCC)c1
Second: CC1CCC(C(C)C)C(OCC(=O)OC2CC(=O)C(CCCCCCC(=O)O)=C2C=Cc2ccccc2)C1 (stereo unspecified)
The melting point of the first is lower: 49 to 50 °C for the first, 103 to 104 °C for the second.

Compared with `CCOC(=O)c1cnc2sccc2c1Sc1ccc(C)cc1`, `Cc1ccc(OCCOc2ccc(C(=O)C(=O)O)cc2)cc1` is higher in melting point: 60 to 63 °C for the first, 135 to 136 °C for the second.

Going from `CN(Cc1cc(C(F)(F)F)cc(C(F)(F)F)c1)C(=O)c1nc(N)ncc1-c1ccccc1` to `O=C(O)CN1C[C@@H](Cc2c[nH]c3ccccc23)N(C(=O)c2cc(C(F)(F)F)cc(C(F)(F)F)c2)CC1=O`, the melting point rises from 182 °C to greater than 220 °C.

First: CCOC(=O)c1cnc2n(c1=O)CCCCC2
Second: O=C1NCCc2c(OCC(O)CN3CCCCC3)cccc21 (stereo unspecified)
The melting point of the first is lower: 82 to 84 °C for the first, 162 to 164 °C for the second.

First: CCCCC1(N(C)C)CCC(c2[nH]c3ccc(F)cc3c2C)(c2[nH]c3ccccc3c2CCNC(=O)Nc2ccccc2)CC1 (stereo unspecified)
Second: Cc1[nH]c(C(=O)N2CCC(C(=O)NCCCN(C)C)CC2)c(C)c1-c1nc2ccc(C(=O)c3ccccc3)cc2[nH]1
The melting point of the first is lower: 127 to 132 °C for the first, 247 to 251 °C for the second.

First: O=P(c1ccccc1)(c1ccccc1)C(O)c1c(Cl)cccc1Cl (stereo unspecified)
Second: O=C1CN(c2ccccc2)C(=O)N1S(=O)(=O)c1ccc(Oc2ccccc2)cc1
The melting point of the first is higher: 205 to 209 °C for the first, 157 to 158 °C for the second.

First: COc1ccc(N/C=C2\C(=O)NC(=O)c3ccccc32)cc1
Second: COc1ccc(C(C)=Cc2ccc3ccccc3c2)cc1
The melting point of the first is higher: 150 to 151 °C for the first, 141 °C for the second.

First: COc1ccccc1N1CCN([C@@H]2Cc3c(O)ccc(O)c3C[C@H]2O)CC1 (relative stereo)
Second: C=CCc1cc(N2CCN(c3ccncc3)CC2)ccc1O
The melting point of the first is higher: 222 to 224 °C for the first, 180 to 182 °C for the second.

First: O=C(CC1CCCC1)c1c(-c2ccc3c(Br)c(OCc4nnn[nH]4)ccc3c2)oc2ccccc12
Second: Nc1ncnc2c1ncn2Cc1oc2ccc(Br)cc2c(=O)c1-c1ccccc1
The melting point of the first is lower: 186 to 187 °C for the first, 207 to 209 °C for the second.

First: Cc1c(NC(=O)CC(C)(C)C)c(C)c2c(c1-c1cccs1)OCC2c1ccc(C(C)C)cc1 (stereo unspecified)
Second: CCOC(=O)c1c(CCc2ccc(OC)cc2)nc2c(c1-c1ccc(C(=O)NCc3ccccn3)cc1)C(=O)N1CCC[C@H]1C2
The melting point of the first is lower: 155 to 156 °C for the first, greater than 200 °C for the second.

Compared with `COC(=O)c1cc(S(C)=O)ccc1OC` (stereo unspecified), `COc1ccc(CC(=O)c2cc(OC)cc(OC)c2)cc1` is higher in melting point: 64 to 66 °C for the first, 93 to 94 °C for the second.

First: O=C(O)c1nn(-c2ccc(Cl)cc2Cl)c2c1CCc1sc(Br)cc1-2
Second: O=C(O)/C(=C\c1cc(-c2ccc3c(c2)OCO3)n(-c2cc(Cl)ccc2Cl)n1)c1cccc(Cl)c1
The melting point of the first is higher: 235 to 237 °C for the first, 174 °C for the second.

Compared with `CCOC(=O)c1cn(C2CC2)c2cc(-c3cc(C(F)(F)F)nc(C(F)(F)F)c3)c(F)cc2c1=O`, `Cc1cc2c(c(NC(C(N)=O)c3c(Cl)cccc3Cl)c1)C(=O)CC2` (stereo unspecified) is higher in melting point: 239 to 241 °C for the first, 250 °C for the second.

Compared with `C[C@@H](n1ccn(-c2ccc(-n3nccn3)cc2)c1=O)[C@](O)(Cn1cncn1)c1ccc(F)cc1F`, `Cc1ccccc1OCCCc1sc(-n2ccnc2C)nc1-c1ccc(Cl)cc1` is lower in melting point: 182 to 185 °C for the first, 112 to 113 °C for the second.

First: CCOC(=O)NN=C(CC)c1ccncc1
Second: CCOC(=O)c1sc(NC(C)=O)nc1CCl
The melting point of the first is lower: 147 °C for the first, 164 to 165 °C for the second.

Compared with `CCC12CCC3C4CCC(=O)C=C4CCC3C1CCC2C(C)=O` (stereo unspecified), `CC(=O)OC1=CCC2C3CC=C4CC(OC(C)=O)CCC4(C)C3CCC12C` (stereo unspecified) is higher in melting point: 138 to 142 °C for the first, 144 to 150 °C for the second.

First: Cc1cc(O)c2c(ccc3nc(-c4ccco4)[nH]c32)n1
Second: Oc1ccc(Cc2noc3cc(O)ccc23)cc1
The melting point of the first is higher: 280 to 282 °C for the first, 178 °C for the second.

First: CSC(C[N+](=O)[O-])NCCSCc1cc(C)c(CN(C)C)s1 (stereo unspecified)
Second: C#CCNC(=NCCSCc1ccc(CN(C)C)o1)NC#N
The melting point of the first is lower: 69 to 71 °C for the first, 122 to 124 °C for the second.

First: CC(C)(CCCCCC(=O)CCCCCC1(C(=O)O)CC1)C(=O)O
Second: COC(=O)C1OC(OC(=N)C(Cl)(Cl)Cl)C(OC(C)=O)C(OC(C)=O)C1OC(C)=O (stereo unspecified)
The melting point of the first is lower: 65 to 66 °C for the first, 108 °C for the second.

Compared with `CSc1ccc(C(=O)CC(=O)C2CC2)c2c1OC(F)(F)O2`, `CC(=O)N1CCC(NC(=O)Nc2ccc(F)cc2)CC1` is higher in melting point: 46 to 47 °C for the first, 146 to 148 °C for the second.

First: COCc1cc(C2=C(Cl)CCN(C(=O)c3ccccc3)C2)no1
Second: CN1CCN(C2Cc3ccccc3Sc3cc(F)c(Cl)cc32)CC1 (stereo unspecified)
The melting point of the first is lower: 60.5 to 62 °C for the first, 105 to 107 °C for the second.

Compared with `COc1ccc2c(c1)c1c(n2-c2ccccc2)C(=O)CO1`, `CCS(=O)c1nnc2n1C=Cc1ccccc1C2` (stereo unspecified) is lower in melting point: 175 °C for the first, 98 to 99 °C for the second.

First: CCOC(=O)C(C#N)C1(C#N)C(=O)N(Cc2ccc(F)cc2)c2c(C)cccc21 (stereo unspecified)
Second: COC(=O)[C@@H]1CCCCCOc2ccc(cc2)C[C@H](NC(=O)OCc2ccccc2)C(=O)N[C@@H](CC(C)C)C(=O)N1
The melting point of the first is higher: 130 to 132 °C for the first, 91 to 93 °C for the second.

Compared with `CC(CNC(=O)OC(C)(C)C)n1nnnc1S` (stereo unspecified), `C#CCCCN=C(NC#N)NCCSCc1[nH]cnc1C` is lower in melting point: 156 to 158 °C for the first, 99 to 103 °C for the second.
